Where a name gives a salt, the structure may show the parent alone.
Experiments:
LAT1 = target: T1, LAT1 (Homo sapiens, UniProt Q01650); test: LAT1 inhibiting activity: inhibition of 14C-L-leucine uptake in T24 cells; format: cell-based; settings: 1 μM 14C-Leu, 1-minute uptake
T1 construct: Using human bladder cancer cell strain T24 cells, in which LAT1 only was strongly expressed; endogenous in cells; host or cells: T24 human bladder cancer cells
Protocol: 1) To each of the weighed test compounds, DMSO was added to prepare a 100 mM solution or suspension as a DMSO stock. In an assay, the stock was diluted 1,000 fold with a buffer described below. The final concentration of the test compound was 100 μM and the final concentration of DMSO was 0.1%.
2) The LAT1 inhibiting activity of the test compound was determined in the following manner. Using human bladder cancer cell strain T24 cells, in which LAT1 only was strongly expressed, inhibiting activity of each test compound against “^14C”-L-leucine uptake was determined as the LAT1 inhibiting activity.
T24 cells in a logarithmic growth-phase were transferred to a 24-well plate at 0.8×10^5 cell/well and cultured at 37° C. for 2 days. After the plate was incubated at 37° C. on a water bath for 5 minutes, the fixed cells were washed three times with a Hank's balanced salt solution (HBSS: 25 mM HEPES, 125 mM choline chloride, 5.6 mM glucose, 4.8 mM KCl, 1.2 mM MgSO4, 1.2 mM KH2PO4, 1.3 mM CaCl2, pH 7.4) warmed to 37° C., not containing Na^+, to which 500 μl of HBSS (37° C.) was added. Then, further incubation was carried out for 7 minutes.
After the incubation was finished, a supernatant was replaced with HBSS containing 1 μM ^14C-Leu and 100 μM test compound (37° C.), followed by 1-minute uptake. Then, the cells were washed three times with HBSS of 4° C. The washed cells were added with 500 μl of 0.1 N NaOH to dissolve the cells for 20 minutes. The cell solution was transferred to a vial, to which 3 ml of a scintillator was added to measure the radioactivity with a liquid scintillation counter.
Inhibition % was calculated by the following formula. Inhibition %=100−(radioactivity of the well added with the test compound)/(radioactivity of the well not added with the test compound)×100

T1 sequence (Q01650 whole entry): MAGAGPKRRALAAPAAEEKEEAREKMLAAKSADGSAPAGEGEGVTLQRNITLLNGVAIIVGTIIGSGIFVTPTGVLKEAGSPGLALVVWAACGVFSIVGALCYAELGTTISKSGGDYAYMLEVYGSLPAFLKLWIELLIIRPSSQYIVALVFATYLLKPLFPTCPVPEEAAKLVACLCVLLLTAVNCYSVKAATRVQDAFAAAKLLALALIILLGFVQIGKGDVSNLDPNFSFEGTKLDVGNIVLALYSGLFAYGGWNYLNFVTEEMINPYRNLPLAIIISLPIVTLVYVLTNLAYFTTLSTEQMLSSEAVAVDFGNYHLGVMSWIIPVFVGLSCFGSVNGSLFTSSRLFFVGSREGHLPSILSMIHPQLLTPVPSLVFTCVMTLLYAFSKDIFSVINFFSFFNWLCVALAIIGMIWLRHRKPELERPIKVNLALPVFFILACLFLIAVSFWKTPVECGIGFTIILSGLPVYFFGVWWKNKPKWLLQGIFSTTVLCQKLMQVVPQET
T1 sequence (P08195 102-630 partner): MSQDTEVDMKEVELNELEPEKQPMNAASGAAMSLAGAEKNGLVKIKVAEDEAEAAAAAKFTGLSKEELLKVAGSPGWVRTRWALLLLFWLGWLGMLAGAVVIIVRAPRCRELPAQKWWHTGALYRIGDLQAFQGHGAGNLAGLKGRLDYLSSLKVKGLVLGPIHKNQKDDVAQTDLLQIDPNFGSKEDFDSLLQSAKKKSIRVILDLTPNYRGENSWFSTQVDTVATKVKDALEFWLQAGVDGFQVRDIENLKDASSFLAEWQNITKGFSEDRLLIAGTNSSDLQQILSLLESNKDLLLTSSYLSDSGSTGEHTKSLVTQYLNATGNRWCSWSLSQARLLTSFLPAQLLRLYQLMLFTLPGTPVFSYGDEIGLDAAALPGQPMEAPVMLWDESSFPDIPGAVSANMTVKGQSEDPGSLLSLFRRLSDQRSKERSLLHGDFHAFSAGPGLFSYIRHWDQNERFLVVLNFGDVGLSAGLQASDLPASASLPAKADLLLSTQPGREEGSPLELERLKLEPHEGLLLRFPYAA

Row | SMILES | melting point | IC50 (LAT1) [nM]
1 | N[C@@H](Cc1cccc(Oc2cccc(-c3cccc(Cl)c3)c2)c1)C(=O)O [Example 102] | 193 to 198 °C (dec.) | 60
2 | N[C@@H](Cc1cccc(Oc2cccc(-c3ccncc3)c2)c1)C(=O)O [Example 96] | 182 to 185 °C (dec.) | 840
3 | CN(C)c1ncc(-c2nc3cccc(COc4c(Cl)cc(C[C@H](N)C(=O)O)cc4Cl)c3o2)cn1 [Example 70] | 218 to 221 °C (dec.) | 290
4 | N[C@@H](Cc1cccc(Oc2ccc(-c3ccccc3)cc2)c1)C(=O)O [Example 93] | 214 to 217 °C (dec.) | 170
5 | COC(=O)c1c(-c2ccccc2)oc2c(COc3c(Cl)cc(C[C@H](N)C(=O)O)cc3Cl)cccc2c1=O (as salt: HCl) [Example 87] | 222.5 to 224 °C (dec.) | 
6 | N[C@@H](Cc1cccc(Oc2cccc(-c3ccc(Cl)cc3)c2)c1)C(=O)O [Example 103] | 204 to 208 °C (dec.) | 60
7 | N[C@@H](Cc1cc(Cl)c(OCc2cccc3nc(-c4ccc(O)cc4)oc23)c(Cl)c1)C(=O)O [Example 22] | 239 to 241 °C (dec.) | 200
8 | N[C@@H](Cc1cccc(Oc2cccc(-c3ccccc3)c2)c1)C(=O)O [Example 53] | 203 to 206 °C (dec.) | 120
9 | N[C@@H](Cc1cc(Cl)c(OCc2cccc3nc4n(c23)Cc2ccccc2-4)c(Cl)c1)C(=O)O [Example 73] | 200 to 208 °C (dec.) | 110
10 | CN(C)c1ccc(-c2nc3cccc(COc4c(Cl)cc(C[C@H](N)C(=O)O)cc4Cl)c3o2)cn1 [Example 65] | 233 to 236 °C (dec.) | 330
11 | COc1ccc2cc(Oc3cccc(C[C@H](N)C(=O)O)c3)ccc2c1 [Example 55, 3-[2-(6-methoxy)naphthyloxy]-L-phenylalanine] | 202 to 206 °C (dec.) | 290
12 | N[C@@H](Cc1cccc(-c2cccc(-c3ccccc3)c2)c1)C(=O)O [Example 112] | 199 to 201 °C (dec.) | 810
13 | N[C@@H](Cc1cccc(Oc2cccc3ccccc23)c1)C(=O)O [Example 54] | 180 to 186 °C (dec.) | 710
14 | N[C@@H](Cc1cc(Cl)c(OCc2cccc3nc(-c4ccc(F)cc4)oc23)c(Cl)c1)C(=O)O [Example 32] | 233 to 236 °C (dec.) | 240
15 | Cc1c(-c2ccccc2)oc2c(CNc3c(Cl)cc(C[C@H](N)C(=O)O)cc3Cl)cccc2c1=O [Example 91] | 207 to 210 °C (dec.) | 100
16 | N[C@@H](Cc1cccc(Oc2cccc(-c3ccccn3)c2)c1)C(=O)O [Example 99] | 187 to 192 °C (dec.) | 520
17 | COc1ccc(-c2nc3cc(C)cc(COc4c(Cl)cc(C[C@H](N)C(=O)O)cc4Cl)c3o2)cc1 [Example 35] | 210 to 213 °C (dec.) | 280
18 | Cc1cc(C[C@H](N)C(=O)O)cc(C)c1OCc1cccc2nc(-c3ccccc3)oc12 [Example 90] | 203 to 210 °C (dec.) | 110
19 | N[C@@H](Cc1cccc(Oc2ccc3cc(O)ccc3c2)c1)C(=O)O [Example 56, 3-[2-(6-hydroxy)naphthyloxy]-L-phenylalanine] | 210 to 220 °C (dec.) | 260
20 | CN(C)c1ccc(-c2cccc(Oc3cccc(C[C@H](N)C(=O)O)c3)c2)cn1 [Example 98] |  | 200
21 | COC(=O)c1c(-c2ccccc2)oc2c(COc3c(Cl)cc(C[C@H](N)C(=O)O)cc3Cl)cccc2c1=O [Example 87] |  | 230

Row | SMILES | melting point | IC50 (LAT1) [nM]
22 | N[C@@H](Cc1cccc(Oc2cccc(-c3cnc4ccccc4c3)c2)c1)C(=O)O [Example 106] | 185 to 190 °C (dec.) | 830
23 | N[C@@H](Cc1cc(Cl)c(OCc2cccc3nc(-c4ccncc4)oc23)c(Cl)c1)C(=O)O [Example 33] | 214 to 218 °C (dec.) | 150
24 | Nc1c(-c2ccccc2)oc2c(COc3c(Cl)cc(C[C@H](N)C(=O)O)cc3Cl)cccc2c1=O [Example 83] | 226 to 230 °C (dec.) | 550
25 | N[C@@H](Cc1cc(Cl)c(OCc2cccc3c(=O)c(CO)c(-c4ccccc4)oc23)c(Cl)c1)C(=O)O [Example 81] | 218 to 221 °C (dec.) | 200
26 | COc1ncc(-c2nc3cccc(COc4c(Cl)cc(C[C@H](N)C(=O)O)cc4Cl)c3s2)c(OC)n1 [Example 74] | 210 to 215 °C (dec.) | 950
27 | N[C@@H](Cc1cccc(Oc2ccc3ccccc3c2)c1)C(=O)O [Example 49-2), 3-(2-naphthyloxy)-L-phenylalanine] | 210 to 214 °C (dec.) | 100
28 | CN(C)c1ccc(-c2cccc(Oc3cccc(C[C@H](N)C(=O)O)c3)c2)cn1 [Example 97] | 214 to 218 °C (dec.) | 10
29 | N[C@@H](Cc1cccc(Oc2ccc3[nH]ccc3c2)c1)C(=O)O [Example 52] | 205 to 210 °C (dec.) | 500
30 | Cc1ccc(-c2nc3cccc(COc4c(Cl)cc(C[C@H](N)C(=O)O)cc4Cl)c3o2)cc1 [Example 36] | 221 to 231 °C (dec.) | 200
31 | N[C@@H](Cc1cc(I)c(OCCCBr)c(I)c1)C(=O)O [Example 1, O-(3-bromopropyl)-3,5-diiodo-L-tyrosine] | 213 to 215 °C (dec.) | 
32 | N[C@@H](Cc1cc(Cl)c(OCc2cccc3nc(-c4cccc(O)c4)oc23)c(Cl)c1)C(=O)O [Example 48] |  | 300
33 | N[C@@H](Cc1cccc(Oc2cccc(-c3cccnc3)c2)c1)C(=O)O [Example 100] | 200 to 204 °C (dec.) | 220
34 | CN(C)c1ccc(-c2cccc(Oc3cccc(C[C@H](N)C(=O)O)c3)c2)cn1 (as salt: hydrochloride) [Example 98] | 223 to 228 °C (dec.) | 
35 | N[C@@H](Cc1cc(Cl)c(OCc2cccc3oc(-c4ccccc4)nc23)c(Cl)c1)C(=O)O [Example 38] | 219 to 223 °C (dec.) | 330
36 | N[C@@H](Cc1cc(Cl)c(OCc2cccc3nc(-c4ccccc4)[nH]c23)c(Cl)c1)C(=O)O [Example 85] | 183 to 187 °C (dec.) | 270
37 | CN(C)c1ccc(-c2nc3cccc(COc4c(Cl)cc(C[C@H](N)C(=O)O)cc4Cl)c3o2)cc1 [Example 37] | 219 to 222 °C (dec.) | 130
38 | CN(CCO)c1ncc(-c2nc3cccc(COc4c(Cl)cc(C[C@H](N)C(=O)O)cc4Cl)c3o2)cn1 [Example 72] | 212 to 215 °C (dec.) | 360
39 | Cc1c(-c2ccccc2)oc2c(COc3c(Cl)cc(C[C@H](N)C(=O)O)cc3Cl)cccc2c1=O [Example 39] | 202 to 204 °C (dec.) | 230
40 | CN(C)c1ncc(-c2cccc(Oc3cccc(C[C@H](N)C(=O)O)c3)c2)cn1 [Example 108] | 191 to 194 °C (dec.) | 670
41 | N[C@@H](Cc1cc(Cl)c(OCc2cccc3nc(Cc4ccccc4)oc23)c(Cl)c1)C(=O)O [Example 63] | 198 to 200.5 °C (dec.) | 940
42 | N[C@@H](Cc1cc(Cl)c(OCc2cccc3nc(-c4ccc(Cl)cc4)oc23)c(Cl)c1)C(=O)O [Example 30] | 209 to 211 °C | 300
